The values below come from patent US20130096100A1, “DI(ARYLAMINO)ARYL COMPOUND” (ASTELLAS PHARMA INC., priority 2007, published 2013).

Broadly, the IC50 is the concentration at which inhibition is half-maximal. High values mean weaker potency, low ones greater potency.

In one experiment the target is T1, MUSK (Homo sapiens, UniProt O15146).
T1 sequence (O15146 24-869): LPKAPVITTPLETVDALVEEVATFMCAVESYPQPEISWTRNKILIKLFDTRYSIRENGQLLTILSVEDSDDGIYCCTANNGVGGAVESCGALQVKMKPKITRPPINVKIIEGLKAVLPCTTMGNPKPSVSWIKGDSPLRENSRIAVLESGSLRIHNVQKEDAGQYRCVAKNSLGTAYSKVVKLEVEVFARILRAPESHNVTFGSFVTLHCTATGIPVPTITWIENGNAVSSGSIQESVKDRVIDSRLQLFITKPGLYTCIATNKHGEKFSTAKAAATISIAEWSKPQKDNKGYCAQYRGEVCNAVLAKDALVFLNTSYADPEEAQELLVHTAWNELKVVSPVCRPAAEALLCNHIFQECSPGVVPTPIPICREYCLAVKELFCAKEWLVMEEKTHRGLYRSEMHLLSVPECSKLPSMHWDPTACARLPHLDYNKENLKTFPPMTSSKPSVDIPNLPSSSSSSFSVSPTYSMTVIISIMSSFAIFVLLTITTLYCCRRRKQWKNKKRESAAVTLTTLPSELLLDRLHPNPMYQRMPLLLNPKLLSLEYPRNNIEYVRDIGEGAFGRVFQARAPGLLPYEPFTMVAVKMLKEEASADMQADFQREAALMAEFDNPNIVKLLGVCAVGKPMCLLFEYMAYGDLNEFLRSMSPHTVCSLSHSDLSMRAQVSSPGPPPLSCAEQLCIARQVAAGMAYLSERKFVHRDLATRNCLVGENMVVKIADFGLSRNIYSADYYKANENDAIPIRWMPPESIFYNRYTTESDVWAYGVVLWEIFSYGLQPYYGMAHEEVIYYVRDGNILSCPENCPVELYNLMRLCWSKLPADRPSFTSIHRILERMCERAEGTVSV
As to the kind of experiment: Inhibitory activity against the kinase activity of MUSK protein (Test Example 7). Format: biochemical. Also on record: purchased Carna Biosciences Inc., Japan. Conditions: ATP 10 μM, reaction 1 hour, HTRF KinEASE-TK. As for the experimental part:
MUSK protein (Carna Biosciences Inc., Japan) was investigated for its phosphorylation activity toward a peptide substrate by using a kinase activity detection kit (HTRF KinEASE-TK; Cisbio Inc.). […] The ATP concentration used was 10 μM. Another reaction solution was prepared to contain the enzyme protein but no test compound (in which the solvent DMSO alone was added at 0.4% in place of the test compound), followed by reaction in the same manner with or without ATP addition. […] The concentration causing 50% inhibition (IC50) was calculated for each test compound by the logistic regression method.
For orientation: TR-FRET usually uses a lanthanide donor and a delayed reading to cut background.

Another experiment relates to NCI-H2228 cells (tumor). As to the kind of experiment: Antitumor test (in vivo) on NCI-H2228 cells (Test Example 8). To be noted: oral 3 mg/kg once a day for 14 days, NOD/SCID mice; tumor volume. As for the experimental part: 3×10^6 cells of NCI-H2228 cells suspended in PBS were inoculated subcutaneously by injection to the back of 5 weeks old male NOD/SCID mice (Charles River Japan, Inc.). After 3 weeks of the inoculation, the administration of test compounds was initiated. The test was conducted in the solvent group and test compound groups, 6 animals per group. The test compounds were each dissolved in a solvent composed of 10% 1-methyl-2-pyrrolidinone (SIGMA-ALDRICH Inc.)/90% polyethylene glycol 300 (Fluka Inc.) and administered orally at a dose of 3 mg/kg. Administrations were performed once a day for 14 days, and body weight and tumor size were measured every other day. Tumor volume was calculated using the following formula.
[Tumor volume (mm^3)]=[Tumor major axis (mm)]×[tumor minor axis (mm)]^2×0.5

For experiment [1], the system named is human non-small cell lung cancer cell line NCI-H2228 cells (EML4-ALK fusion protein-expressing cells). As to the kind of experiment: Inhibitory effect against anchorage-independent cell growth of NCI-H2228 cells (Test Example 3). Format: cell-based. Conditions: 120 h, spheroid plate, 5 days, CellTiter-Glo. For orientation: In ATP-based viability assays light output follows the ATP content of the culture.

`CCNS(=O)(=O)c1ccccc1Nc1ncnc(Nc2ccc(N3CCC(N4CCN(C)CC4)CC3)cc2OC)n1` [Example 123]: the figures for the IC50 (against MUSK; in experiment [1]) were 1100 nM and 30 nM, respectively. Further, the “inhibition of the growth of NCI-H2228 cells (tumor)” value with NCI-H2228 cells (tumor) was found to be 108%.

As for `COc1cc(N2CCC(N3CCN(C)CC3)CC2)ccc1Nc1ncnc(Nc2ccccc2S(=O)(=O)C(C)C)n1` [Example 23], the IC50 was 1500 nM against MUSK and 71 nM in experiment [1]. In addition, in the experiment on NCI-H2228 cells (tumor), the “inhibition of the growth of NCI-H2228 cells (tumor)” value was found to be 116%.
